# Test results taken from patent publication US20040236519A1, “Libraries of confomationally constrained peptides, chiral azacrowns, and peptidomimetics and methods of making the same” (priority 2001, published 2004).
# Experiments:
# [1] = target: Sodium, Site 2; settings: cited from earlier work
# [2] = target: Potassium Channel, ATP-Sensitive; settings: cited from earlier work
# [3] = test system: Potassium Channel, Ca2+ Act., VI; assay: Radioligand binding assay, potassium channel, Ca2+ Act., VI (NOVASCREEN); settings: 1.0E−5 (single dose 10 μM); average, N = 2
# Method: (§1) Evaluation of M40403 and M40401 in the following radioligand binding assays: potassium channels (ATP-sensitive, Ca2+Act., VI, potassium channel, CA2+Act., VS) and sodium channels (site 1 and site 2). M40403 and M40401 were tested at a single does of 10 µM. The list of an appropriate radioligand used in each ion channel assay is shown in Table 1. […].
# (§2) Screening assays can provide valuable information about a compound's biological activity and selectivity. NOVASCREEN Biosciences Corporation of Hanover, Md. was used for these assays. To understand and assess the data, these guidelines are to be used for interpretation of the data presented:
# (§3) In most assays, our standard baseline range runs from −20% to +20% inhibition of binding or enzyme activity. […]. NOVASCREEN's assays are designed to test for inhibition of binding or enzyme activity. […]. NOVASCREEN uses a criteria of 50% inhibition (or greater) to qualify a compound as active. Active compounds tested at multiple concentrations can generally be expected to show a dose-dependent response and such follow-up studies are recommended.
# [4] = target: T1, human opioid μ receptor (Homo sapiens, UniProt P35372); assay: Opioid receptor binding, [3H]DAMGO, CHO cell membranes
# T1 construct: expressed in transfected cells; host or cells: CHO cells, membranes
# Method: (§4) Evaluation of M40403 binding affinity for opioid receptors in vitro radioligand binding assays. Referring to FIGS. 6-11, receptor binding studies were conducted on human opioid receptors transfected into Chinese hamster ovary (CHO) cells. The μ cell line is maintained in Ham's F-12 medium supplemented with 10% fetal bovine serum and 400 μg/ml GENETICIN (G418 sulfate). The δ cell line is maintained in Ham's F-12 medium supplemented with 10% fetal bovine serum and 500 μg/ml hygromycin B. The k cell line is maintained in Dulbecco's minimal essential medium (DMEM) supplemental with 10% fetal bovine serum, 400 μg/ml GENETICIN (G418 sulfate) and 0.1% penicillin/streptomycin. All cell lines are grown to full confluency, then harvested for membrane preparation. The membrane for binding assays is prepared in 50 mM Tris buffer, pH 7.7. Cells are harvested by scraping the plates with a rubber policeman and then centrifuged at 500×g for 10 minutes. The cell pellet is suspended in buffer A or Tris buffer, homogenized in a Polytron Homogenizer, and centrifuged at 20,000×g for 20 minutes. The cell pellet is washed in buffer A or Tris, centrifuged at 20,000×g for another 20 minutes and finally suspended in a small amount of buffer to determine protein content. Membrane is aliquoted in small vials at a concentration of 6 mg/ml per vial and stored at −70° C. and used as needed.
# (§5) Routine binding assays were conducted using [^3H]DAMGO, [^3H]C1-DPDPE, and [^3H]U69,593 to bind to μ, δ and k receptors, respectively. […] Filters are dried overnight before radioactivity levels are determined. Nonspecific binding is determined by using 1.0 μM of the unlabeled counterpart of each radioligand.
# (§6) Full characterization of compounds includes analysis of the data for IC50 values and Hill coefficients by using the program PRIMS. Ki values are calculated using the Cheng Prusoff transformation: [formula]
# (§7) where L is radioligand concentration and Kd is the binding affinity of the radioligand, as determined previously by saturation analysis. […]
# [5] = target: T2, human opioid k receptor (Homo sapiens, UniProt P41145); assay: Opioid receptor binding, [3H]U69,593, CHO cell membranes; settings: human receptor in CHO cell membranes, Cheng Prusoff
# T2 construct: expressed in transfected cells; host or cells: CHO cells, membranes
# Method: Evaluation of M40403 binding affinity for opioid receptors in vitro radioligand binding assays. Referring to FIGS. 6-11, receptor binding studies were conducted on human opioid receptors transfected into Chinese hamster ovary (CHO) cells. The μ cell line is maintained in Ham's F-12 medium supplemented with 10% fetal bovine serum and 400 μg/ml GENETICIN (G418 sulfate). The δ cell line is maintained in Ham's F-12 medium supplemented with 10% fetal bovine serum and 500 μg/ml hygromycin B. The k cell line is maintained in Dulbecco's minimal essential medium (DMEM) supplemental with 10% fetal bovine serum, 400 μg/ml GENETICIN (G418 sulfate) and 0.1% penicillin/streptomycin. […]
# as §5, §6, §7
# [6] = test system: Potassium Channel, ATP-Sensitive; assay: Radioligand binding assay, potassium channel, ATP-sensitive (NOVASCREEN); settings: 1.0E−5 (single dose 10 μM); average, N = 2
# Method: as §1, §2, §3
# [7] = target: T3, human opioid δ receptor (Homo sapiens, UniProt P41143); assay: Opioid receptor binding, [3H]Cl-DPDPE, CHO cell membranes
# T3 construct: expressed in transfected cells; host or cells: CHO cells, membranes
# Method: as §4, §5, §6, §7
# [8] = test system: Sodium, Site 1; assay: Radioligand binding assay, sodium channel site 1 (NOVASCREEN); settings: 1.0E−5 (single dose 10 μM); average, N = 2
# Method: as §1, §2, §3
# [9] = test system: Potassium Channel, Ca2+ Act., VS; assay: Radioligand binding assay, potassium channel, Ca2+ Act., VS (NOVASCREEN); settings: 1.0E−5 (single dose 10 μM); average, N = 2
# Method: as §1, §2, §3
# [10] = test system: Sodium, Site 2; assay: Radioligand binding assay, sodium channel site 2 (NOVASCREEN); settings: 1.0E−5 (single dose 10 μM); average, N = 2
# Method: as §1, §2, §3
# [11] = target: Potassium Channel, Ca2+ Act., VS; settings: cited from earlier work
# [12] = Competitive metal binding by ESI-MS; assay type: physicochemical
# Method: The ability of these peptides to bind metals was determined by electrospray-ionization mass spectrometry (hereinafter “ESI-MS”). ESI-MS has been successfully used to study a wide variety of non-covalent interactions owing to the gentle nature of the electrospray-ionization process that allows non-covalent complexes to be introduced intact into the gas phase. Thus, ESI-MS provides equilibrium information about the solution and the relative abundance of different peptide-metal binding complexes. The peptide ligands were dissolved in 50% CH3CN or methanol and then diluted to 10 mM solution with 1 mM of CH3COONH4/10% CH3OH solution. Stock solutions (200 uM) of the metal ions (CuSO4, NiSO4, ZnSO4, HgSO4. Co(NO3)2) were made. 40 ul of the ligand solution was mixed with 40 ul of the metal-ion solution, diluted with methanol or 1 mM of CH3COONH4. The solution was treated with KOH to form the complex. Competitive binding was used to study the relative metal-binding properties of each ligand by adding two different metal ions.
# [13] = target: Potassium Channel, Ca2+ Act., VI; settings: radioligand of the assay; cited from earlier work
# [14] = Giblin et al., cited from earlier work; for binding affinity reduced compared with the disulfide parent: rhenium complex
# [15] = human receptor in CHO cell membranes, Cheng Prusoff
# T3 sequence (P41143 whole entry): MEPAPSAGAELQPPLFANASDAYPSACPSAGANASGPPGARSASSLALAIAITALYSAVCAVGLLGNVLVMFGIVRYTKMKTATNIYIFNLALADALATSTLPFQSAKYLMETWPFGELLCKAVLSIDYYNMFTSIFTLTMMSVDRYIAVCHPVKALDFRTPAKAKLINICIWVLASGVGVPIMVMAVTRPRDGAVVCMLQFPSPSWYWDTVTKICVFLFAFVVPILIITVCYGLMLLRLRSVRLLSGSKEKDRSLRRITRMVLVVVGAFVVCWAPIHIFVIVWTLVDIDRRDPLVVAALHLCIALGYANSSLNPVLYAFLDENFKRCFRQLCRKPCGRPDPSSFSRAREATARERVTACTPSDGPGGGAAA
# T1 sequence (P35372 whole entry): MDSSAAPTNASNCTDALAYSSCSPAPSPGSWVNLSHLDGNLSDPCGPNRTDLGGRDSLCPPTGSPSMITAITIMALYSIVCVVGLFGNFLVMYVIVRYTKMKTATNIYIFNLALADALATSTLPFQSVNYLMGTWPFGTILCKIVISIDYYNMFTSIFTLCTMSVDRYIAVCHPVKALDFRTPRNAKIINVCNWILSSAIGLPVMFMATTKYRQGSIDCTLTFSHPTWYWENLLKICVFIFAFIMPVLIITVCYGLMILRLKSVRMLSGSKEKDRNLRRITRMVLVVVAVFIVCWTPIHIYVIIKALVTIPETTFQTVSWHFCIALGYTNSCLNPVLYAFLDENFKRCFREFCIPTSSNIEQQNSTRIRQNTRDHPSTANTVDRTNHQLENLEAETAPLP
# T2 sequence (P41145 whole entry): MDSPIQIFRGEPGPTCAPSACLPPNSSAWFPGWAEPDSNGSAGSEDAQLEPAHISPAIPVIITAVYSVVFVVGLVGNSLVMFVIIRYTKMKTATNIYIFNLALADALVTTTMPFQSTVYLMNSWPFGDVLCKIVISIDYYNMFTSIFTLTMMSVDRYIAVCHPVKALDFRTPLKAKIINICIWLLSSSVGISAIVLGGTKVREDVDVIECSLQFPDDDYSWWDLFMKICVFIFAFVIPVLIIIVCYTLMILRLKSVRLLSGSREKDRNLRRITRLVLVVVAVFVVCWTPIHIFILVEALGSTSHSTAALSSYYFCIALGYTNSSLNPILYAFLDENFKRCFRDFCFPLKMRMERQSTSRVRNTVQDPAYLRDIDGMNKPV
compound,measurement,setting,value
CCN1C[C@]2(COC)[C@H](O)C[C@H](OC)[C@@]34[C@@H]5C[C@@]6(O)[C@H](OC(=O)c7ccccc7)[C@@H]5[C@@](OC(C)=O)([C@@H]([C@H](OC)[C@H]23)[C@@H]14)[C@@H](O)[C@@H]6OC [Aconitine],Ki,"[1]; reference compound, radioligand [3H]Bactrachotoxin A 20-a-Benzo, read-out: Ki (M) Ref. Cpd.",8.38e-07 M
COc1ccc(Cl)cc1C(=O)NCCc1ccc(S(=O)(=O)NC(=O)NC2CCCCC2)cc1 [Glibenclamide],Ki,"[2]; reference compound, radioligand [3H]Glibenclamide, read-out: Ki (M) Ref. Cpd.",7.85e-10 M
[Cl-].[Cl-].[Mn+2].c1cc2nc(c1)CN[C@@H]1CCCC[C@H]1NCCN[C@@H]1CCCC[C@H]1NC2 [M40403],Percent Inhibition,[3],30.35%
same,IC50,"[4]; Hot Ligand [3H]DAMGO, Jul. 2, 1999 and confirmation Jul. 5, 1999, read-out: IC50, MU Binding",> 10000 nM
same,Ki,[4]; [15],> 10000 nM
same,affinity for mu receptors,[4]; summary in words,no significant affinity
same,Ki,[5],~240 nM
same,Ki,"[5]; listed as 20,636",240 ± 121 nM
same,Percent Inhibition,[6],4.67%
same,IC50,"[7]; Hot Ligand [3H]DPDPE-CL, Jul. 2, 1999 and confirmation Jul. 5, 1999, read-out: IC50, Delta Binding",> 10000 nM
same,Ki,[7]; [15],> 10000 nM
same,affinity for delta receptors,[7]; summary in words,no significant affinity
same,Percent Inhibition,[8],−19.68%
same,Percent Inhibition,[9],9.72%
same,Percent Inhibition,[10],93.84%
COc1ccc(Cl)cc1C(=O)NCCc1ccc(S(=O)(=O)NC(=O)NC2CCCCC2)cc1 [[3H]Glibenclamide],Kd,[2]; radioligand of the assay,0.25 nM
Charybdotoxin,Ki,"[11]; reference compound, radioligand [125I]Charybdotoxin, read-out: Ki (M) Ref. Cpd.",5.12e-10 M
H-Val-Ψ(CONOH)-Phe-Ala-Pro-Leu-CONOH [compound 14],metal-binding ability,"[12]; among the peptides containing two hydroxymate groups, competitive binding",strongest metal-binding ability
same,metal-binding specificity,[12]; competitive binding with two different metal ions,Cu(II)>Co(II)>Fe(III)>Cd(II)>Zn(II)>Ni(II)
[3H]Bactrachotoxin A 20-a-Benzo,Kd,[1]; radioligand of the assay,32 nM
[125I]Apamin,Kd,[13],0.07 nM
[125I]Charybdotoxin,Kd,[11]; radioligand of the assay,0.1 nM
"[Cys^3,4,10, D-Phe7]-α-Msh4-13",binding affinity improved over the previous rhenium complex,[14],25 fold
same,binding affinity reduced compared with the disulfide parent,[14],4 fold
"[Cys^4,10, D-Phe7]-α-Msh4-13",binding affinity reduced compared with the disulfide parent,[14],approximately 100 fold
